Reference: PubChem BioAssay (NCI)
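Method: 48-hour compound exposure of cells in 96-well plates, five concentrations, linear interpolation of endpoints. GI50 is the concentration that inhibits growth by half. TGI is the concentration that stops growth completely.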

Legend:
Test in all cases: NCI tumour cell line growth inhibition, 48 h
[1] = system: DLD-1 colon
[2] = system: KM20L2 colon
[3] = system: M19-MEL melanoma
[4] = system: RXF-631 renal
[5] = system: SNB-78 CNS
[6] = system: XF 498 CNS
[7] = system: DMS 273 small cell lung
[8] = system: HOP-18 NSCLC
[9] = system: MDA-N

| SMILES | TGI [1] [µM] | TGI [2] [µM] | TGI [3] [µM] | TGI [4] [µM] | TGI [5] [µM] | TGI [6] [µM] | TGI [7] [µM] | TGI [8] [µM] | GI50 [1] [µM] | GI50 [7] [µM] | GI50 [8] [µM] | GI50 [2] [µM] | GI50 [3] [µM] | GI50 [6] [µM] | TGI [9] [µM] | GI50 [5] [µM] |
| --- | --- | --- | --- | --- | --- | --- | --- | --- | --- | --- | --- | --- | --- | --- | --- | --- |
| Cc1cccc(C)c1NC(=O)C(=O)C(C(=O)c1ccccc1-c1ccccc1)C1OC(=O)c2ccccc21 (stereo not drawn) | 37.3 | 67.7 | 34.7 | > 100 | > 100 | 30.9 |  |  |  |  |  |  |  |  |  |  |
| S=c1[nH]c(=S)c2nnn(-c3ccccc3)c2[nH]1 | > 100 | > 100 | > 100 |  |  | > 100 | > 100 |  |  |  |  |  |  |  |  |  |
| N#CC(C(=O)C(=O)Nc1ccc(Cl)cc1)c1ccccc1 (stereo not drawn) | > 100 | > 100 | > 100 | > 100 | > 100 |  | > 100 | > 100 |  |  |  |  |  |  |  |  |
| COc1c[c]([Hg][O]C(C)=O)c(OC)c(NC(=O)CC(C)=O)[c]1[Hg][O]C(C)=O | 5.18 | 30.9 | 22 |  |  | 3.2 | 36.7 | 4.62 | 2.25 | 13.6 | 1.96 | 14.2 | 8.85 | 1.65 |  |  |
| O=C1OCC2C1C1c3ccccc3C(O)c3ccccc3C21 (stereo not drawn) | > 100 | > 100 | > 100 | > 100 | > 100 | > 100 |  | > 100 |  |  |  |  |  |  |  |  |
| COc1ccc(-c2coc3c4c(ccc3c2=O)OCO4)cc1OC |  |  |  |  |  |  |  |  |  |  |  |  |  |  | > 100 |  |
| CC(=O)[O][Ga]([Br])[O]C(C)=O | > 100 | > 100 | > 100 |  | > 100 | > 100 | > 100 | > 100 | > 100 | > 100 | > 100 | > 100 | > 100 | > 100 |  | > 100 |
| COC(=O)[C@H]1C=C[C@@H](C)n2c(=O)c3cc4ccccc4cc3c(=O)n21 | > 100 | > 100 | > 100 | > 100 | > 100 | > 100 | > 100 |  |  |  |  |  |  |  |  |  |
| O=CN1CCN(CC(O)CN2CCCCC2)CC1 (stereo not drawn) |  |  |  |  |  |  |  |  |  |  |  |  |  |  | > 100 |  |
| CC(C)N(CCn1c2c3ccccc3ccc2c2oc(=O)c3ccccc3c21)C(C)C | > 100 | > 100 | > 100 | > 100 | > 100 | > 100 |  | > 86.6 |  |  |  |  |  |  |  |  |
| Cc1nc([N+](=O)[O-])cn1CC(=N)N | > 100 | > 100 | > 100 | > 100 |  |  | > 100 |  |  |  |  |  |  |  |  |  |
| Cc1nc2sc3c(c2c(=O)[nH]1)CCCC3 |  |  |  |  |  |  |  |  |  |  |  |  |  |  | > 100 |  |
| CC1=NC(=Cc2cc(Br)cc(Br)c2)C(=O)N1n1c(-c2ccccc2)nc2ccccc2c1=O |  |  |  |  |  |  |  |  |  |  |  |  |  |  | > 100 |  |
| Cc1ccc(NC(=O)CSc2nnc(-c3ccc(N=Cc4ccc(Cl)cc4)cc3)o2)cc1 |  | > 100 | > 100 |  | > 100 | > 100 | > 100 | > 100 |  |  |  |  |  |  |  |  |
| CCN1CCC(O)(/C=C/c2ccc(C)cc2)C(C(=O)/C=C/c2ccc(C)cc2)C1 (stereo not drawn) |  |  |  |  |  |  |  |  |  |  |  |  |  |  | 10.3 |  |
| CCCN1CN(C(C(=O)N[C@@H]2C(=O)N3C2SC(C)(C)C3C(=O)O)c2ccc(O)cc2)CSC1=S (stereo partly drawn) | > 100 | > 100 | > 100 |  |  | > 100 | > 100 | > 100 |  |  |  |  |  |  |  |  |
| Cc1cc(S(=O)(=O)O)c(NC(=O)C(=O)Cc2cc(=O)oc3cc(O)ccc23)cc1Cl | > 100 | > 100 | > 100 | > 100 |  |  | > 100 | > 100 |  |  |  |  |  |  |  |  |
| C/C(CC(=O)Nc1cccc(Cl)c1C)=N\NC(=O)c1ccncc1 | > 100 | > 100 | > 100 |  | > 100 | > 100 | > 100 |  |  |  |  |  |  |  |  |  |
| Cc1ccc(C)c(N=C2NC(=O)C(CC(=O)Nc3ccc(Cl)cc3Cl)S2)c1 (stereo not drawn) | > 100 | > 100 | > 100 |  |  | 90.5 | > 100 | > 100 |  |  |  |  |  |  |  |  |
| CC(C)C(=O)NS(=O)(=O)c1ccccc1 | > 100 | > 100 | > 100 | > 100 | > 100 | > 100 |  | > 100 |  |  |  |  |  |  |  |  |
| CC(=O)O[C@H]1CCC2[C@@H]3CCC4Nc5[nH]ncc5C[C@]4(C)C3CC[C@@]21C (stereo partly drawn) |  | > 100 | > 100 | > 100 |  | 87 | > 100 | > 100 |  |  |  |  |  |  |  |  |
